Measurements taken from patent US6187552A, “Method for identifying inhibitors of JAK2/cytokine receptor binding” (Pharmacia & Upjohn Company, priority 1998, dated 2001).

Tested on: βc in human eosinophils
Assay: Tyrosine phosphorylation of βc in human eosinophils stimulated with IL-5 (immunoblot)
Format: cell-based
Conditions: FIG. 2
Protocol: Eosinophils were isolated from human whole blood or granulocyte leukapheresis packs obtained from Pharmacia and Upjohn Clinical Research Unit--Kalamazoo, Mich. Only blood from donors who had >5% peripheral blood eosinophils was used, while leukapheresis donors usually had 3-5% eosinophils. One unit of whole blood was divided among 50-ml polypropylene centrifuge tubes and centrifuged for 20 minutes at 300×g at room temperature (RT). The plasma was removed and 50 ml were centrifuged at 2500×g for 15 minutes at RT to remove platelets. The resulting platelet poor plasma (ppp) was diluted 1:4 in normal saline.
Immediately after purification, eosinophils were resuspended at 2×10^7 cells/ml in RPMI 1640 medium (GibcoBRL, Gaithersburg, Md.) supplemented with 1% fetal bovine serum (FBS, GibcoBRL, Gaithersburg,Md.) and incubated 2 min at 37°. Recombinant human IL-5 (Biosource, Camarillo, Calif.) diluted in PBS with 0.1% bovine serum albumin was added at 12.5 ng/ml for various times using 1×10^7 cells per data point. Tubes were placed on ice and 10 volumes of PBS with 0.1 mM sodium orthovanadate were added to each tube. Eosinophils were pelleted by centrifugation at 300×g and resuspended in 0.6 ml lysis buffer (20 mM Tris-Cl, pH 7.4, 100 mM NaCl, 10 mM sodium pyrophosphate, 2 mM EDTA, 50 mM NaF, 1 mM sodium orthovanadate, 3% Triton X-100) with protease inhibitors (10 μg/ml aprotinin, 10 μg/ml leupeptin, and 0.2 mM phenylmethylsulfonyl fluoride).
After incubation on ice for 15 min, debris was pelleted by centrifugation at 16,000×g. βc was immunoprecipitated from the lysate by rotating overnight at 4° with a 1:300 dilution of anti-βcantibody (Upstate Biotechnology, Lake Placid, N.Y.). Twenty microliters of protein A-Sepharose (Pharmacia Biotech, Uppsala, Sweden) were added to each lysate, and the incubation was continued one hour. […]

IL-5: Recombinant human IL-5 (Biosource)
time of peak tyrosine phosphorylation of βc (12.5 ng/ml human IL-5, 37° C.): 5 to 10 min | time to tyrosine phosphorylation of βc (12.5 ng/ml human IL-5, 37° C.): ≤ 1 min | time by which dephosphorylation was evident (12.5 ng/ml human IL-5, continued presence): ≤ 30 min
